Assay results from PubChem BioAssay (NCI).
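96-well plates; 48 h exposure; 5 concentrations. Endpoints by linear interpolation between flanking doses. Not reached: highest tested concentration assigned. GI50 is the concentration that inhibits growth by half. At the TGI there is no net growth.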

Experiments:
Test in all cases: DTP human tumour cell line panel, 48 h
786-0 renal = test system: 786-0 renal
A498 renal = test system: A498 renal
A549 NSCLC = test system: A549 NSCLC
ACHN renal = test system: ACHN renal
BT-549 breast = test system: BT-549 breast
CAKI-1 renal = test system: CAKI-1 renal
CCRF-CEM leukemia = test system: CCRF-CEM leukemia
COLO 205 colon = test system: COLO 205 colon
DU-145 prostate = test system: DU-145 prostate
EKVX NSCLC = test system: EKVX NSCLC
HCC-2998 colon = test system: HCC-2998 colon
HCT-116 colon = test system: HCT-116 colon
HCT-15 colon = test system: HCT-15 colon
HL-60(TB) leukemia = test system: HL-60(TB) leukemia
HOP-62 NSCLC = test system: HOP-62 NSCLC
HOP-92 NSCLC = test system: HOP-92 NSCLC
HS 578T breast = test system: HS 578T breast
HT29 colon = test system: HT29 colon
IGROV1 ovarian = test system: IGROV1 ovarian
K-562 leukemia = test system: K-562 leukemia
KM12 colon = test system: KM12 colon
LOX IMVI melanoma = test system: LOX IMVI melanoma
M14 melanoma = test system: M14 melanoma
MALME-3M melanoma = test system: MALME-3M melanoma
MCF7 breast = test system: MCF7 breast
MDA-MB-231 breast = test system: MDA-MB-231 breast
MDA-MB-435 = test system: MDA-MB-435
MOLT-4 leukemia = test system: MOLT-4 leukemia
NCI-H226 lung = test system: NCI-H226 lung
NCI-H23 lung = test system: NCI-H23 lung
NCI-H460 lung = test system: NCI-H460 lung
NCI-H522 lung = test system: NCI-H522 lung
NCI/ADR-RES ovarian = test system: NCI/ADR-RES ovarian
OVCAR-3 ovarian = test system: OVCAR-3 ovarian
OVCAR-4 ovarian = test system: OVCAR-4 ovarian
OVCAR-5 ovarian = test system: OVCAR-5 ovarian
OVCAR-8 ovarian = test system: OVCAR-8 ovarian
PC-3 prostate = test system: PC-3 prostate
RPMI-8226 leukemia = test system: RPMI-8226 leukemia
RXF 393 renal = test system: RXF 393 renal
SF-268 CNS = test system: SF-268 CNS
SF-295 CNS = test system: SF-295 CNS
SF-539 CNS = test system: SF-539 CNS
SK-MEL-2 melanoma = test system: SK-MEL-2 melanoma
SK-MEL-28 melanoma = test system: SK-MEL-28 melanoma
SK-MEL-5 melanoma = test system: SK-MEL-5 melanoma
SK-OV-3 ovarian = test system: SK-OV-3 ovarian
SN12C renal = test system: SN12C renal
SNB-19 CNS = test system: SNB-19 CNS
SNB-75 CNS = test system: SNB-75 CNS
SR leukemia = test system: SR leukemia
SW-620 colon = test system: SW-620 colon
T-47D breast = test system: T-47D breast
TK-10 renal = test system: TK-10 renal
U251 CNS = test system: U251 CNS
UACC-257 melanoma = test system: UACC-257 melanoma
UACC-62 melanoma = test system: UACC-62 melanoma
UO-31 renal = test system: UO-31 renal
MDA-N = test system: MDA-N

`COc1cc(/C=C/C(=O)c2cccc(-n3cc(-c4ccccc4)[nH]c3=O)c2)ccc1O` showed a GI50 (786-0 renal) of 2.37 µM, a TGI (786-0 renal) of 7.93 µM and a GI50 (A498 renal) of 1.68 µM. For the same molecule, the TGI (A498 renal) was 3.87 µM, the GI50 (A549 NSCLC) was 4.18 µM and the TGI (A549 NSCLC) was 17.8 µM. The GI50 (ACHN renal) was 3.46 µM, the TGI (ACHN renal) was 16.3 µM and the GI50 (BT-549 breast) was 2.91 µM. The TGI (BT-549 breast) was 14.7 µM, the GI50 (CAKI-1 renal) was 4.47 µM and the TGI (CAKI-1 renal) was 15.2 µM. It also gave a GI50 (CCRF-CEM leukemia) of 1.76 µM, a TGI (CCRF-CEM leukemia) of 5.33 µM and a GI50 (COLO 205 colon) of 3.85 µM. The TGI (COLO 205 colon) was 9.91 µM, the GI50 (DU-145 prostate) was 2.32 µM and the TGI (DU-145 prostate) was 5.37 µM. It also gave a GI50 (EKVX NSCLC) of 6.38 µM, a TGI (EKVX NSCLC) of 36.3 µM and a GI50 (HCC-2998 colon) of 1.92 µM. The TGI (HCC-2998 colon) was 4.21 µM, the GI50 (HCT-116 colon) was 1.8 µM and the TGI (HCT-116 colon) was 4.11 µM. For the same molecule, the GI50 (HCT-15 colon) was 2.9 µM, the TGI (HCT-15 colon) was 14.3 µM and the GI50 (HL-60(TB) leukemia) was 2.07 µM. The TGI (HL-60(TB) leukemia) was 5.53 µM, the GI50 (HOP-62 NSCLC) was 4.6 µM and the TGI (HOP-62 NSCLC) was 15.3 µM. The GI50 (HOP-92 NSCLC) was 1.99 µM, the TGI (HOP-92 NSCLC) was 6.68 µM and the GI50 (HS 578T breast) was 3.09 µM. For the same molecule, the TGI (HS 578T breast) was 18.6 µM, the GI50 (HT29 colon) was 3.77 µM and the TGI (HT29 colon) was over 100 µM. For the same molecule, the GI50 (IGROV1 ovarian) was 2.22 µM, the TGI (IGROV1 ovarian) was 7.28 µM and the GI50 (K-562 leukemia) was 2.23 µM. The TGI (K-562 leukemia) was 9.29 µM, the GI50 (KM12 colon) was 2.02 µM and the TGI (KM12 colon) was 4.68 µM. The GI50 (LOX IMVI melanoma) was 2.5 µM, the TGI (LOX IMVI melanoma) was 9.16 µM and the GI50 (M14 melanoma) was 3.57 µM. It also gave a TGI (M14 melanoma) of 18 µM, a GI50 (MALME-3M melanoma) of 5.25 µM and a TGI (MALME-3M melanoma) of 17.1 µM. It also gave a GI50 (MCF7 breast) of 1.94 µM, a TGI (MCF7 breast) of 6.65 µM and a GI50 (MDA-MB-231 breast) of 3.36 µM. It also gave a TGI (MDA-MB-231 breast) of 15.2 µM, a GI50 (MDA-MB-435) of 2.58 µM and a TGI (MDA-MB-435) of 8.91 µM. It also gave a GI50 (MOLT-4 leukemia) of 2.49 µM, a TGI (MOLT-4 leukemia) of 6.28 µM and a GI50 (NCI-H226 lung) of 6.35 µM. It also gave a TGI (NCI-H226 lung) of 17.8 µM, a GI50 (NCI-H23 lung) of 3.16 µM and a TGI (NCI-H23 lung) of 11.6 µM. It also gave a GI50 (NCI-H460 lung) of 3.01 µM, a TGI (NCI-H460 lung) of 8.68 µM and a GI50 (NCI-H522 lung) of 1.78 µM. The TGI (NCI-H522 lung) was 6.12 µM, the GI50 (NCI/ADR-RES ovarian) was 3.5 µM and the TGI (NCI/ADR-RES ovarian) was over 43 µM. For the same molecule, the GI50 (OVCAR-3 ovarian) was 2.33 µM, the TGI (OVCAR-3 ovarian) was 6.06 µM and the GI50 (OVCAR-4 ovarian) was 3.3 µM. For the same molecule, the TGI (OVCAR-4 ovarian) was over 23 µM, the GI50 (OVCAR-5 ovarian) was 6.25 µM and the TGI (OVCAR-5 ovarian) was 14.1 µM. It also gave a GI50 (OVCAR-8 ovarian) of 3.35 µM, a TGI (OVCAR-8 ovarian) of 17.8 µM and a GI50 (PC-3 prostate) of 2.87 µM. It also gave a TGI (PC-3 prostate) of 12 µM, a GI50 (RPMI-8226 leukemia) of 1.66 µM and a TGI (RPMI-8226 leukemia) of 4.21 µM. It also gave a GI50 (RXF 393 renal) of 1.78 µM, a TGI (RXF 393 renal) of 4.12 µM and a GI50 (SF-268 CNS) of 2.74 µM. For the same molecule, the TGI (SF-268 CNS) was 8.31 µM, the GI50 (SF-295 CNS) was 6.75 µM and the TGI (SF-295 CNS) was 21 µM. It also gave a GI50 (SF-539 CNS) of 2.19 µM, a TGI (SF-539 CNS) of 5.78 µM and a GI50 (SK-MEL-2 melanoma) of 3.81 µM. It also gave a TGI (SK-MEL-2 melanoma) of 15.1 µM, a GI50 (SK-MEL-28 melanoma) of 0.722 µM and a TGI (SK-MEL-28 melanoma) of 3.07 µM. It also gave a GI50 (SK-MEL-5 melanoma) of 2.48 µM, a TGI (SK-MEL-5 melanoma) of 6.65 µM and a GI50 (SK-OV-3 ovarian) of 4.02 µM. It also gave a TGI (SK-OV-3 ovarian) of 35.5 µM, a GI50 (SN12C renal) of 3.02 µM and a TGI (SN12C renal) of 12 µM. It also gave a GI50 (SNB-19 CNS) of 3.07 µM, a TGI (SNB-19 CNS) of 11 µM and a GI50 (SNB-75 CNS) of 3.21 µM. It also gave a TGI (SNB-75 CNS) of 12.3 µM, a GI50 (SR leukemia) of 1.65 µM and a TGI (SR leukemia) of over 100 µM. For the same molecule, the GI50 (SW-620 colon) was 2.48 µM, the TGI (SW-620 colon) was 6.3 µM and the GI50 (T-47D breast) was 2.72 µM. For the same molecule, the TGI (T-47D breast) was 8.59 µM, the GI50 (TK-10 renal) was 9.52 µM and the TGI (TK-10 renal) was 31.2 µM. The GI50 (U251 CNS) was 2.5 µM, the TGI (U251 CNS) was 7.9 µM and the GI50 (UACC-257 melanoma) was 4.88 µM. It also gave a TGI (UACC-257 melanoma) of 17.1 µM, a GI50 (UACC-62 melanoma) of 2.33 µM and a TGI (UACC-62 melanoma) of 7.74 µM. It also gave a GI50 (UO-31 renal) of 2.01 µM and a TGI (UO-31 renal) of 8.73 µM.

`CC(=O)/C=C1/C(=O)C(CC(C)C)=C1CC(C)C` showed a TGI (786-0 renal) of over 100 µM, a TGI (A498 renal) of over 100 µM and a TGI (A549 NSCLC) of over 100 µM. It also gave a TGI (ACHN renal) of over 100 µM, a TGI (CAKI-1 renal) of over 100 µM and a TGI (CCRF-CEM leukemia) of over 100 µM. The TGI (COLO 205 colon) was over 100 µM, the TGI (DU-145 prostate) was over 100 µM and the TGI (EKVX NSCLC) was over 100 µM. For the same molecule, the TGI (HCT-116 colon) was over 100 µM, the TGI (HCT-15 colon) was over 100 µM and the TGI (HL-60(TB) leukemia) was over 100 µM. For the same molecule, the TGI (HOP-62 NSCLC) was over 100 µM, the TGI (HOP-92 NSCLC) was over 100 µM and the TGI (HS 578T breast) was over 100 µM. For the same molecule, the TGI (HT29 colon) was over 100 µM, the TGI (IGROV1 ovarian) was over 100 µM and the TGI (KM12 colon) was over 100 µM. It also gave a TGI (LOX IMVI melanoma) of over 100 µM, a TGI (M14 melanoma) of over 100 µM and a TGI (MALME-3M melanoma) of over 100 µM. For the same molecule, the TGI (MCF7 breast) was over 100 µM, the TGI (MDA-MB-231 breast) was over 100 µM and the TGI (MDA-MB-435) was over 100 µM. It also gave a TGI (MDA-N) of over 100 µM, a TGI (MOLT-4 leukemia) of over 100 µM and a TGI (NCI-H226 lung) of over 100 µM. For the same molecule, the TGI (NCI-H23 lung) was over 100 µM, the TGI (NCI-H522 lung) was over 100 µM and the TGI (NCI/ADR-RES ovarian) was over 100 µM. It also gave a TGI (OVCAR-4 ovarian) of over 100 µM, a TGI (OVCAR-5 ovarian) of over 100 µM and a TGI (OVCAR-8 ovarian) of over 100 µM. The TGI (PC-3 prostate) was over 100 µM, the TGI (RXF 393 renal) was over 100 µM and the TGI (SF-268 CNS) was over 100 µM. For the same molecule, the TGI (SF-295 CNS) was over 100 µM, the TGI (SF-539 CNS) was over 100 µM and the TGI (SK-MEL-2 melanoma) was over 100 µM. It also gave a TGI (SK-MEL-28 melanoma) of over 100 µM, a TGI (SK-MEL-5 melanoma) of over 100 µM and a TGI (SK-OV-3 ovarian) of over 100 µM. For the same molecule, the TGI (SN12C renal) was over 100 µM, the TGI (SNB-19 CNS) was over 100 µM and the TGI (SNB-75 CNS) was over 100 µM. It also gave a TGI (SW-620 colon) of over 100 µM, a TGI (T-47D breast) of over 100 µM and a TGI (TK-10 renal) of over 100 µM. The TGI (U251 CNS) was over 100 µM, the TGI (UACC-257 melanoma) was over 100 µM and the TGI (UACC-62 melanoma) was over 100 µM. For the same molecule, the TGI (UO-31 renal) was over 100 µM.
